In patent publication US4432973A, “Benzoyl- and α-hydroxybenzyl-phenyl-glycosides and application thereof in therapeutics” (Societe de Recherches Industrielles (S.O.R.I.), priority 1980, dated 1984):

Legend:
[1] = Acute toxicity in the mouse by the I.P. route; format: in vivo; conditions: for LD50: read-out: DL-50 (lethal dose involving the death of half of the animals)
Description: The acute toxicity was studied in the mouse by the I.P. route. It is expressed in the form of DL-50 (lethal dose involving the death of half of the animals) or DL-0 (maximum non-lethal dose).

[2] = system: blood platelet aggregation; test: Spontaneous aggregation: blood platelet anti-aggregation activity; format: in vivo, rat (adult male); conditions: t=5 hours, rat; for inhibition in vivo at 100 mg/kg: ip, 100 mg/kg I.P.
Method: The technique used is that of Sanders described in Laboratory Animal Science 27 (No. 5), pages 757-761 (1977).
After administration at 100 mg/kg I.P. (unless specified to the contrary in Table V hereinbelow) of the product to be tested to adult male reproducing rats, two blood samples are taken, one on sodium citrate and the other on sodium citrate treated with formaldehyde at instant t=5 hours.
After centrifugation of the samples, a platelet count is made on the supernatant liquid. The spontaneous aggregation index according to Wu and Hook Stroke 6, 521-524 (1975) is expressed by the relation: [formula]

[3] = Veinous thrombosis: veinous anti-thrombus activity; format: in vivo; conditions: Rattus norvegicus, ip, 100 mg/kg I.P., 4 to 5 hours after administration, read-out: Diminution of veinous thrombus
Method: The technique used is similar to the one described by Peterson-Zucker in Thrombo.Diath.Haemorh. 23, 1, (1970).
An occlusive thrombus is created in the […] vena cava of a rat by the combined action of an endothelial alteration and a veinous stasis for 15 mins. and 4 to 5 hours after administration of the product to be tested (100 mg/kg I.P.).

[4] = Anti-ulcer activity: ulcer caused by aspirin; format: in vivo, rat (male Wistar); conditions: 100 mg/kg I.P.; aspirin 192 mg/kg per os; standardised to control batch and cimetidine (index 1)
Method: The experiment is carried out on male Wistar rats of 180 to 200 g. The products to be tested are administered at 100 mg/kg I.P. (unless indicated to the contrary in Table IV).
At t=0, the rats are made to fast and a first administration of the product to be tested is made.
At t=18 hours, 2 ml of an ulcer-forming suspension with 192 mg of aspirin/kg are administered per os then a second administration of the product to be tested is made.
At t=22 hours, the animals are sacrificed and the ulcers are marked as follows: small point-like ulcers: mark 1 more extensive ulcers: mark 3 highly extensive or very deep ulcers: mark 9
This marking is standardised with respect to a control batch and to cimetidine (a reference product) to which index 1 has been allocated.

[5] = Anti-hypoxic activity: survival to hypoxia (nitrogen-oxygen 95:5); format: in vivo, mouse (Swiss male); conditions: I.P., 1/10th of LD-50 or 100 mg/kg when LD-0 ≥ 800 mg/kg; up to 15 minutes; mouse
Method: The experiment is carried out on batches of 20 Swiss male mice weighing from 20 to 30 g. Each product to be tested is administered to the mice by intraperitoneal route at a dose corresponding to 1/10th of the LD-50 or at a dose of 100 mg/kg when the LD-0 is higher than or equal to 800 mg/kg. The mice are placed in a nitrogen-oxygen (95:5) v/v atmosphere. The survival time of the mice is then measured up to 15 minutes maximum.
The results shown in Table VII are expressed in percentage of survival with respect to a non-treated control batch and a batch treated with an anti-hypoxic reference product [specialty known under the trade name of "Duxil" and which is constituted by a mixture of Almitrine bis-methanesulfonate and of Raubasine in the weight ratio 3:1], the anti-hypoxic reference product being administered at the dose of 18 mg/kg I.P.

Row | Compound | inhibition in vivo at 100 mg/kg ([2]; Platelet) [%] | inhibition in vivo at 100 mg/kg [3] [%] | Ulcer index [4] | DL-0 (maximum non-lethal dose) ([1]; in vivo, ip) [mg/kg IP] | Survival (survival percentage to hypoxic aggression) [5] | further results
1 | O=[N+]([O-])c1ccc(C(O)c2ccc(O[C@@H]3OC[C@@H](O)[C@H](O)[C@H]3O)cc2)cc1 (stereo partly drawn) [Example 97, [4-(4-nitro-α-hydroxybenzyl)-phenyl]-β-D-xylopyranoside] | ≥ 40 | ≥ 50 | 0.52 | – | – | LD50 ([1]; in vivo, ip, I.P.): > 1000 mg/kg
2 | Cc1ccc(C(=O)c2ccc(O[C@@H]3OC[C@@H](O)[C@H](O)[C@H]3O)cc2)cc1 [Example 12] | 25 to 39 | – | 0.26 | > 800 | ++ (from 50 to 79%) | –
3 | O=[N+]([O-])c1ccccc1C(O)c1ccc(O[C@@H]2OC[C@@H](O)[C@H](O)[C@H]2O)cc1 (stereo partly drawn) [Example 101] | – | ≥ 50 | 0.56 | > 800 | + (from 30 to 49%) | –
4 | COc1cc(C(=O)c2ccc(O[C@@H]3OC[C@@H](OC(C)=O)[C@H](OC(C)=O)[C@H]3OC(C)=O)cc2)cc(OC)c1OC [Example 79] | ≥ 40 | – | – | – | – | DL-0 (maximum non-lethal dose) ([1]; I.P.): > 800 mg/kg IP
5 | Nc1ccc(C(=O)c2ccc(O[C@@H]3OC[C@@H](O)[C@H](O)[C@H]3O)cc2)cc1 [Example 8] | ≥ 40 | ≥ 50 | 0.25 | > 800 | +++ (higher than or equal to 80%) | –
6 | O=C(c1ccc(Cl)cc1)c1ccc(O[C@@H]2OC[C@@H](O)[C@H](O)[C@H]2O)cc1 [Example 3] | – | 30 to 49 | – | > 800 | +++ (higher than or equal to 80%) | –
7 | CC(=O)N[C@H]1[C@H](Oc2ccc(C(=O)c3ccc(Cl)cc3)cc2)O[C@H](COS(=O)(=O)O)[C@@H](OS(=O)(=O)O)[C@@H]1OS(=O)(=O)O [Example 67, [4-(4-chlorobenzoyl)-phenyl]-3,4,6-tri-(ammonium-sulfate)-2-N-acetyl-β-D-glucosaminide] | 25 to 39 | 30 to 49 | 0.81 | – | – | DL-0 (maximum non-lethal dose) ([1]; I.P.): > 800 mg/kg IP
8 | OC(c1ccc(Cl)cc1)c1ccc(O[C@@H]2OC[C@@H](O)[C@H](O)[C@H]2O)cc1 (stereo partly drawn) [Example 91] | – | 30 to 49 | 0.72 | > 800 | +++ (higher than or equal to 80%) | –
9 | CC(=O)O[C@@H]1[C@@H](OC(C)=O)[C@H](Oc2ccc(C(=O)c3ccc(C)cc3)cc2)OC[C@H]1OC(C)=O [Example 76] | – | 30 to 49 | 0.38 | > 800 | ++ (from 50 to 79%) | –
10 | OC[C@H]1O[C@@H](Oc2ccc(C(O)c3ccc(Cl)cc3)cc2)[C@H](O)[C@@H](O)[C@@H]1O (stereo partly drawn) [Example 131] | – | 30 to 49 | – | – | ++ (from 50 to 79%) | LD50 ([1]; in vivo, ip, I.P.): 730 mg/kg
11 | Cc1ccccc1C(=O)c1ccc(O[C@@H]2OC[C@@H](O)[C@H](O)[C@H]2O)cc1 [Example 14] | – | ≥ 50 | – | – | – | LD50 ([1]; in vivo, ip, I.P.): 740 mg/kg; inhibition in vivo at 75 mg/kg ([2]; Platelet, 75 mg/kg IP): ≥ 40%
12 | COc1ccc(C(=O)c2cccc(O[C@@H]3OC[C@@H](O)[C@H](O)[C@H]3O)c2)cc1 [Example 54] | ≥ 40 | 30 to 49 | 0.57 | – | – | DL-0 (maximum non-lethal dose) ([1]; I.P.): > 800 mg/kg IP
13 | O=C(c1ccc(O[C@@H]2OC[C@@H](O)[C@H](O)[C@H]2O)cc1)c1ccc([N+](=O)[O-])cc1 [Example 1, [4-(4-nitrobenzoyl)-phenyl]-β-D-xylopyranoside] | ≥ 40 | – | 0.56 | > 800 | +++ (higher than or equal to 80%) | –
14 | CC(=O)O[C@@H]1[C@@H](OC(C)=O)[C@H](Oc2c(C)cc(C(=O)c3ccccc3Cl)cc2C)OC[C@H]1OC(C)=O [Example 113] | – | – | – | – | +++ (higher than or equal to 80%) | LD50 ([1]; in vivo, ip, I.P.): 630 mg/kg; inhibition in vivo at 63 mg/kg ([2]; Platelet, 63 mg/kg IP): ≥ 40%
15 | O=C(c1ccc(O[C@@H]2OC[C@@H](O)[C@H](O)[C@H]2O)cc1)c1ccccc1O [Example 125] | – | 30 to 49 | – | – | + (from 30 to 49%) | LD50 ([1]; in vivo, ip, I.P.): 1700 mg/kg
16 | Cc1cc(C(O)c2ccccc2C)ccc1O[C@@H]1OC[C@@H](O)[C@H](O)[C@H]1O (stereo partly drawn) [Example 105] | – | – | – | – | – | LD50 ([1]; in vivo, ip, I.P.): 450 mg/kg; inhibition in vivo at 45 mg/kg ([2]; Platelet, 45 mg/kg IP): 25 to 39%
17 | CC(=O)O[C@@H]1[C@@H](OC(C)=O)[C@H](Oc2ccc(C(=O)c3cccc(C(F)(F)F)c3)cc2)OC[C@H]1OC(C)=O [Example 108] | – | 30 to 49 | 0.30 | > 800 | + (from 30 to 49%) | –
18 | CC(=O)O[C@@H]1[C@@H](OC(C)=O)[C@H](Oc2c(C)cc(C(=O)c3ccc(Cl)cc3)cc2C)OC[C@H]1OC(C)=O [Example 114] | 25 to 39 | – | – | > 800 | ++ (from 50 to 79%) | –
19 | Cc1ccccc1C(O)c1ccc(O[C@@H]2OC[C@@H](O)[C@H](O)[C@H]2O)cc1 (stereo partly drawn) [Example 89] | – | ≥ 50 | 0.88 | – | – | DL-0 (maximum non-lethal dose) ([1]; I.P.): > 800 mg/kg IP
20 | Cc1cc(C(=O)c2ccccc2C)ccc1O[C@@H]1OC[C@@H](O)[C@H](O)[C@H]1O [Example 85] | – | ≥ 50 | – | – | + (from 30 to 49%) | LD50 ([1]; in vivo, ip, I.P.): > 550 mg/kg
21 | Cc1cc(C)c(C(=O)c2cccc(O[C@@H]3OC[C@@H](O)[C@H](O)[C@H]3O)c2)c(C)c1 [Example 71] | – | 30 to 49 | 0.98 | – | – | DL-0 (maximum non-lethal dose) ([1]; I.P.): > 800 mg/kg IP
22 | Cc1ccccc1C(=O)c1cc(C)c(O[C@@H]2OC[C@@H](O)[C@H](O)[C@H]2O)c(C)c1 [Example 21] | ≥ 40 | – | 0.16 | – | – | LD50 ([1]; in vivo, ip, I.P.): 600 mg/kg
23 | CC(=O)N[C@H]1[C@H](Oc2c(C)cc(C(=O)c3ccc([N+](=O)[O-])cc3)cc2C)O[C@H](CO)[C@@H](O)[C@@H]1O [Example 119] | – | ≥ 50 | 0.47 | > 800 | +++ (higher than or equal to 80%) | –
24 | CC(=O)N[C@H]1[C@H](Oc2ccc(C(O)c3ccc([N+](=O)[O-])cc3)cc2)O[C@H](CO)[C@@H](O)[C@@H]1O (stereo partly drawn) [Example 123] | – | 30 to 49 | – | > 800 | ++ (from 50 to 79%) | –
25 | OC(c1ccc(Cl)cc1)c1ccc(O[C@@H]2OC[C@@H](O)[C@H](O)[C@H]2O)cc1 (stereo partly drawn) [Example 94] | – | – | – | – | + (from 30 to 49%) | DL-50 (lethal dose involving the death of half of the animals) ([1]; I.P.): 330 mg/kg IP; Inhibition of platelet aggregation ([2]; 33 mg/kg IP): + (inhibition of 25 to 39%)
26 | CC(=O)N[C@H]1[C@H](Oc2ccc(C(=O)c3ccc(C(F)(F)F)cc3)cc2)O[C@H](CO)[C@@H](O)[C@@H]1O [Example 118] | 25 to 39 | – | 0.53 | > 800 | ++ (from 50 to 79%) | –
27 | CC(=O)O[C@@H]1[C@@H](OC(C)=O)[C@H](Oc2ccc(C(=O)c3ccc([N+](=O)[O-])cc3)cc2C)OC[C@H]1OC(C)=O [Example 104] | ≥ 40 | – | 0.84 | > 800 | ++ (from 50 to 79%) | –
